{
  "source": "patent US20120190004A1",
  "about": "“METHODS AND COMPOSITIONS FOR THE CRYOPRESERVATION OF DUCKWEED” (Biolex Therapeutics, Inc., priority 2009, published 2012)",
  "test_in_all_cases": "Cryopreservation success rate after dormancy induction in sugar-supplemented medium",
  "key": {"BAP01-B2-230 line": {"tested_on": "BAP01-B2-230 line", "format": "in vivo, Lemna minor", "method": "(§1) Lemna minor duckweed plants were cultured on Schenk and Hildebrandt media with 20 mg/ml sucrose at an aerial temperature of between 21° C. and 30° C. and light levels ranging from […] for 1 day up to 1 year. Three frond colonies (each frond colony comprised one or more daughter fronds attached to the mother frond) were aseptically transferred into a 2.0-mL cryovial containing a 900 μL solution of Schenk and Hildebrandt media, supplemented with 15 mg/ml of each D-trehalose dihydrate, sucrose, D-sorbitol, D-raffinose pentahydrate, D-glucose, and D-mannitol for the dormancy-induction step. The frond colonies were incubated in this sugar solution for 21-30 days. Each 24-hour photoperiod was comprised of fluctuations in temperature and light levels. Specifically, the daytime hours consisted of culturing the duckweed frond colony at an aerial temperature of 10° C. with a light level of about 25 μM·M^−2·sec^−1 to about 50 μM·M^−2·sec^−1 for a duration of 3 hours, followed by an aerial temperature of 15° C. at a light level of about 25 μM·M^−2·sec^−1 to about 75 μM·M^−2·sec^−1 for a duration of 6 hours, and an aerial temperature of 10° C. with a light level of about 25 μM^−2·sec^−1 to about 50 μM·M^−2·sec^−1 for a duration of 3 hours. During the nighttime hours of the 24-hour photoperiod, the duckweed frond colonies were cultured at an aerial temperature of 4° C. in the absence of light for a duration of 12 hours.\n(§2) The duckweed frond colonies were dehydrated in a laminar flow hood in 900 μL of a cryoprotective solution, comprising 1.92 M DMSO, […], 3.26 M glycerol, and 0.4 M sucrose at pH 5.8. The cryovials were incubated in this solution at 4° C. for 30 minutes to 2 hours in the absence of light. Following the incubation, the cryoprotective solution was removed and replaced with 900 μL of fresh cryoprotective solution.\n(§3) The duckweed frond colonies were frozen in a slow rate freezer according to the following freezing protocol. The cryovials containing the duckweed frond colonies were held at 4° C. and the temperature was lowered to −4° C. at 1° C. per minute, to −40° C. at 25° C. per minute, and then raised to −12° C. at 10° C. per minute. The temperature was again lowered to −40° C. at 1° C. per minute, to −90° C. at 10° C. per minute, and then lowered to −150° C. at 10° C. per minute. Once frozen, the vials containing the frond colonies were transferred to the vapor phase of liquid nitrogen for storage.\n(§4) After up to 17 months in storage, the frozen duckweed frond colonies were thawed and recovered as follows. The vials containing the frozen duckweed frond colonies were transferred from the liquid nitrogen storage tank to a laminar flow hood and were thawed at room temperature for approximately ten minutes. The cryoprotective solution was removed and replaced with 900 μL of Schenk and Hildebrandt medium, supplemented with 1.2 M sucrose, followed by a ten minute incubation at room temperature. The 1.2 M sucrose was subsequently diluted by a series of five dilutions whereby 450 μL of the 1.2 M sucrose solution was removed and replaced with 450 μL of Schenk and Hildebrandt medium supplemented with 20 mg/ml sucrose. Following the serial dilutions, the frond colonies were transferred to a petri dish with Schenk and Hildebrandt medium, supplemented with 10 mg/ml sucrose and 1% (weight/volume) agar. The duckweed frond colonies were cultured at an aerial temperature of between 21° C. and 30° C. with light levels ranging from about 20 μM·M^−2·sec^−1 to about 100 μM·M^−2·sec^−1 for 7-14 days prior to calculating the success rate of the cryopreservation procedure.\n(§5) The cryopreservation success rate was calculated by the total number of visible daughter fronds (or daughter fronds with viable tissue) to survive the freezing process and successfully reproduce new daughter fronds as a percentage of the total number of visible daughter fronds that were frozen. […]"}, "L. minor": {"tested_on": "L. minor", "format": "in vivo, Lemna minor", "method": "as §1, §2, §3, §4, §5"}, "L. yungensis": {"tested_on": "L. yungensis", "format": "in vivo, Lemna yungensis", "conditions": "single sugars 90 mg/ml unless the label says 20 mg/ml, six sugar combo 15 mg/ml each"}},
  "data": [
    {"smiles": "OC[C@H]1O[C@@](CO)(O[C@H]2O[C@H](CO)[C@@H](O)[C@H](O)[C@H]2O)[C@@H](O)[C@@H]1O", "note": "[Sucrose, sucrose]", "values": [
      {"measurement": "Cryopreservation success rate", "setting": "BAP01-B2-230 line; sugars at two concentrations: 90 mg/ml (1X) and 270 mg/ml (3X), listed as Sucrose 1X", "value": "100% (16/16)"},
      {"measurement": "Cryopreservation success rate", "setting": "BAP01-B2-230 line; sugars at two concentrations: 90 mg/ml (1X) and 270 mg/ml (3X), listed as Sucrose 3X", "value": "0% (0/12)"},
      {"measurement": "Cryopreservation success rate", "setting": "BAP01-B2-230 line; various concentrations of six sugar combination: total sugar 90 (1X), 216 (2.4X), 342 mg/ml (3.8X), or 20 mg/ml sucrose", "value": "60.9% (14/23)"},
      {"measurement": "Cryopreservation success rate", "setting": "L. minor; dormancy induction 21-Day, fluctuating temperature and light", "value": "93.75% (30/32)"},
      {"measurement": "Cryopreservation success rate", "setting": "L. minor; first set of experiments, single sugars 90 mg/ml unless the label says 20 mg/ml, six sugar combo 15 mg/ml each", "value": "36.8% (7/19)"},
      {"measurement": "Cryopreservation success rate", "setting": "L. minor; second set of experiments, single sugars 90 mg/ml unless the label says 20 mg/ml, six sugar combo 15 mg/ml each", "value": "91.7% (11/12)"},
      {"measurement": "Cryopreservation success, in words", "setting": "L. minor; summary of Tables 6 and 7", "value": "lower cryopreservation success rates"},
      {"measurement": "Cryopreservation success rate", "setting": "L. yungensis; first set of experiments", "value": 0, "unit": "%"},
      {"measurement": "Cryopreservation success rate", "setting": "L. yungensis; second set of experiments", "value": 0, "unit": "%"}
    ]}
  ]
}
